Experimental data: patent publication US20250213647A1, “CHEMOKINE RECEPTORS AND ALPHA1 ADRENERGIC RECEPTORS/VASOPRESSIN RECEPTORS 1A HETEROMERS AS DRUG TARGETS FOR DISEASE” (UNIVERSITY OF SOUTH FLORIDA, priority 2022, published 2025)

How the values were obtained:
[1] = test system: heteromeric complexes between α1B/D-ARs and CCR1, CCR2, CXCR4; assay: Proximity ligation assay, receptor-receptor interactions on THP-1 cells; details: 10 μM, 30 min at 37° C.; FIG. 8
[2] = test system: CR heteromerization partners of α1B/D-ARs (CCR1, CCR2, CXCR4); assay: Chemotaxis assay, human monocytes, CR heteromerization partners of α1B/D-ARs taken together; assay type: cell-based; details: FIG. 17B
Description: (§1) Cell migration was measured employing the Neuroprobe (Gaithersburg, MD, USA) ChemoTx® Disposable Chemotaxis System. A 96-well Boyden-chamber (30 μL/well, 8 μm pores, 1×10^5 pores/cm^2 pore density) was selected for all chemotaxis experiments. Bottom wells of the Boyden-chamber were loaded with 30 μL of test substances at various concentrations. Top wells of the membrane were loaded with 25 μL of THP-1 cells, THP-1_ADRA1B^KO, wild type THP-1 cells after clonal expansion (=control for THP-1_ADRA1B^KO) or freshly isolated monocytes (200 cells/μL). THP-1 cells were suspended in depleted RPMI1640 (0.5% HyClone™ fetal bovine serum, Sigma); Freshly isolated monocytes were suspended in RPMI1640 (0.5% human platelet poor plasma, Sigma). After 3 hours, transmigrated cells were counted utilizing the Cytation 1 plate reader (BioTek) by direct imaging in high contrast bright field (4×) and post-imaging particle analyses with Gen5 (v3.05) Imaging & Microscopy Software (BioTek). The chemotactic index (CI) was calculated as the ratio of cells that transmigrated in the presence versus the absence of the test solutions.

[3] = test system: THP-1 cells (CCR2-mediated Gαi signaling); assay: Cyclic AMP measurement in forskolin-stimulated THP-1 cells; assay type: cell-based, human; details: forskolin-stimulated THP-1 cells; 1 μM PE, 1 μM PT or 100 nM NE; 15 min at 37° C.; FIG. 4G, 4H
Description: Cyclic AMP amounts were measured using the cAMP complete enzyme immunoassay kit, acetylated format (Enzo Life Sciences). 4×10^5 cells were incubated with forskolin/isobutylmethylxanthine (10 μM/0.5 mM final concentrations) in 0.1% BSA/10 mM Hepes-buffered RPMI and treated with CCL2 in the presence or absence of 1 μM PE, 1 μM PT or 100 nM NE at 37° C. for 15 min. The cells were lysed by incubating with 0.1 M HCl at room temperature for 20 min. The cAMP amounts in the lysate supernatant were measured following the manufacturer's instructions.

[4] = target: T1, heteromerization between α1b-AR and CCR2 (Homo sapiens, UniProt P35368); assay: Saturation BRET to assess receptor heterodimerization (α1b-AR-RlucII / CCR2-EYFP, HEK293T); details: 10 μM ligand, 5 min; for BRETmax: FIG. 3B; for BRET50 values: FIG. 3C
T1 sequence (P35368 1-520): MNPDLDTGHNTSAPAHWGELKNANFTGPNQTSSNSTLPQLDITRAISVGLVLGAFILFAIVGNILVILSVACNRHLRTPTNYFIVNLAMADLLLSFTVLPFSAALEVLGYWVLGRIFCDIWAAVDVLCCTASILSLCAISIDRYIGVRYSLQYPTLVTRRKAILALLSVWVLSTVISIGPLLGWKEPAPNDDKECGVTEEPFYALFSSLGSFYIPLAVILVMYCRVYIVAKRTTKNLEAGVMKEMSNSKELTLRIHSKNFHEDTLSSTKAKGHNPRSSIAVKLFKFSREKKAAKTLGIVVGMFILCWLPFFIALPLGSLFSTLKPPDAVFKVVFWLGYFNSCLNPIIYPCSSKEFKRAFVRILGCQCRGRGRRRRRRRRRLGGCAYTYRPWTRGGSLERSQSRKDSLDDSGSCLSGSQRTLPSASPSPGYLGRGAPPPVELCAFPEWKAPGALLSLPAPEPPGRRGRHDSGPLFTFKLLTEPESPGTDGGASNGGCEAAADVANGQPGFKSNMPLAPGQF

CCR1 [5] = assay: Chemotaxis assay, THP-1 cells toward CCL23 (CCR1-mediated); assay type: cell-based, human; details: CCL23 10 nM, mean±SE, read-out: IC50 for inhibition of CCR1-mediated chemotaxis
Description: as §1

CCR1 [6] = assay: Chemotaxis assay, human monocytes toward CCL23 (CCR1-mediated); assay type: cell-based; details: mean±SE, read-out: IC50 for inhibition of CCR1-mediated chemotaxis
Description: as §1

CCR2 [7] = target: T2, CCR2 (Homo sapiens, UniProt P41597); assay: Gαi activation assay (TRUPATH BRET), HEK293T cells transfected with CCR2 plus pcDNA3 (CCR2 alone); assay type: cell-based; details: cells transfected with CCR2 alone; 10 μM PE or PT; FIG. 4B, 4E
Description: HEK293T cells were plated in a 6-well plate and transfected with 0.2 μg each of Gαi1-Rluc8, Gβ3 and Gγ9-GFP2 (Trupath) together with 0.2 μg of mouse or human CCR2 with either pcDNA3.1 or α1b-AR. One day after transfection, cells were trypsinized and replated to 96-well poly-L lysine precoated plates. After overnight incubation, cells were replaced with 0.1% glucose/PBS. Prolume Purple (NanoLight Tech.) or coelenterazine 400a in a final concentration of 5 μM were added in experiments with human or mouse CCR2, respectively, and incubated at room temperature for 3 min. Ligands at various concentrations were added to cells and incubated at room temperature for 5 min before luminescence was measured at 410 nm and 515 nm. […] The BRET changes were calculated by subtracting the BRET signal of untreated cells.

CCR2 [8] = target: T2, CCR2; assay: PRESTO-Tango β-arrestin recruitment assay, HTLA cells with CCR2-Tango plus pcDNA3; assay type: cell-based; details: absence of α1b-AR; FIG. 5A
Description: The assays were performed as described previously (Albee, 2017; Gao, 2022; Albee, 2018; Eby, 2017; Cheng, 2017). HTLA cells were seeded in a 6-well plate and transfected with 750 ng FLAG-CCR2-Tango together with 750 ng pcDNA3.1 or HA-α1b-AR using TransIT-2020 Transfection Reagent. The next day, cells (75,000 cells/well) were plated onto poly-L-Lysine pre-coated 96-well plates and allowed to attach to the plate surface for at least 4 hours prior to treatment. Cells were treated with receptor ligands at the concentrations indicated in the figure legends for 2 h and then replaced with fresh full medium and incubated overnight at 37° C., 5% CO2 in a humidified environment. The following morning, medium was replaced with a 100 μL 1:10 mixture of Bright-Glo (Promega) and PBS. Plates were then incubated at room temperature for 10 min before measuring luminescence on a Biotek Synergy II plate reader. Relative luminescence units (RLU) are expressed as fold changes of RLU vs unstimulated cells.

CCR2 [9] = target: T2, CCR2; assay: Chemotaxis assay, human monocytes toward CCL2 (CCR2-mediated); assay type: cell-based; set-up: host or cells: THP-1; details: mean±SE, read-out: IC50 for inhibition of CCR2-mediated chemotaxis
Description: as §1

T2 sequence (P41597 whole entry): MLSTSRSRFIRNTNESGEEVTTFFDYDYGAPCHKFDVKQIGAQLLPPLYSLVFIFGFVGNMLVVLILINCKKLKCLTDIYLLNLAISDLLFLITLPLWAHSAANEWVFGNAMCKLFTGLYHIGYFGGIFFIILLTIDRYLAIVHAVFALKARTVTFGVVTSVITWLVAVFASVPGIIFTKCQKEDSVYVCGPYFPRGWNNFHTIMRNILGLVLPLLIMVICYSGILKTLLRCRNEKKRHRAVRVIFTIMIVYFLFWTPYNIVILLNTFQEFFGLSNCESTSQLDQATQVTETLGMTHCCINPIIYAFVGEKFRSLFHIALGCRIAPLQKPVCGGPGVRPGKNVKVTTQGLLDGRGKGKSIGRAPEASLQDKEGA

Compound	heteromeric complexes between α1B/D-ARs and their chemokine heteromerization partners (PLA signals) [1]	inhibition of chemotaxis mediated via CR heteromerization partners of α1B/D-ARs [2]	effect on the effects of CCL2 on cAMP production [3]	BRETmax [4]	BRET50 values [4]	IC50 (CCR1 [5])	IC50 (CCR1 [6])	effect on CCL2-induced Gαi1 activation (CCR2 [7])	β-arrestin recruitment to CCR2-Tango by the ligand (CCR2 [8])	IC50 (CCR2 [9])
CNC[C@H](O)c1cccc(O)c1 [phenylephrine]	reduced	60-77%	inhibited the effects of CCL2 on cAMP production	did not affect	significantly increased	5 ± 6.7 nM	12 ± 8 nM	did not affect	did not induce	37 ± 26 nM
Cc1ccc(N(CC2=NCCN2)c2cccc(O)c2)cc1 [phentolamine]	reduced	–	inhibited the effects of CCL2 on cAMP production	did not affect	significantly increased	0.03 ± 0.08 nM	–	did not affect	did not induce	–
